Measured values from patent US20100204182A1, “ECTONUCLEOTIDASE INHIBITORS” (RHEINISCHE FRIEDRICH-WILHELMS-UNIVERSITAT BONN, priority 2006, published 2010).

Tests used:
human NTPDase2 = target: T1, human NTPDase2 (Homo sapiens, UniProt Q9Y5L3); assay: NTPDase inhibition assay by capillary electrophoresis (CE), NTPDase2; format: biochemical; details: for Ki: human NTPDase2, CE method, ATP 320 μM, Km 70 μM, read-out: NTPDase2 Ki [μM] ± SEM
T1 sequence (Q9Y5L3 1-495): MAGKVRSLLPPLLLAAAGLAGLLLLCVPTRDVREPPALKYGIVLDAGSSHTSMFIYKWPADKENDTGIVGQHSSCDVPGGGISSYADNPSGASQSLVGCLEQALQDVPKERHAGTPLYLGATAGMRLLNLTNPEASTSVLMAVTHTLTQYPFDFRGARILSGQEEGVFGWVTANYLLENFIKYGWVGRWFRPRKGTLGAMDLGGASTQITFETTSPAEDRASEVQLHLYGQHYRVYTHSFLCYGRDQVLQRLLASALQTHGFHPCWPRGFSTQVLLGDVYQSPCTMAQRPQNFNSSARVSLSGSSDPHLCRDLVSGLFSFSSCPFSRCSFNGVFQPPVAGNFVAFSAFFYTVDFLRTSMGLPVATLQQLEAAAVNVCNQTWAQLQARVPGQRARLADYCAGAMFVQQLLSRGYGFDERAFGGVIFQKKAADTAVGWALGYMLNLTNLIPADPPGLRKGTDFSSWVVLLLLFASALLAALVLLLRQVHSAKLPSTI

human NTPDase8 = target: T2, human NTPDase8 (Homo sapiens, UniProt Q5MY95); assay: NTPDase inhibition assay by capillary electrophoresis (CE), NTPDase8; format: biochemical; details: for inhibition at 1000 µM: human NTPDase8, 1 mM compound, ATP 320 μM; for Ki: read-out: NTPDase8 Ki [μM] ± SEM
T2 sequence (Q5MY95 1-495): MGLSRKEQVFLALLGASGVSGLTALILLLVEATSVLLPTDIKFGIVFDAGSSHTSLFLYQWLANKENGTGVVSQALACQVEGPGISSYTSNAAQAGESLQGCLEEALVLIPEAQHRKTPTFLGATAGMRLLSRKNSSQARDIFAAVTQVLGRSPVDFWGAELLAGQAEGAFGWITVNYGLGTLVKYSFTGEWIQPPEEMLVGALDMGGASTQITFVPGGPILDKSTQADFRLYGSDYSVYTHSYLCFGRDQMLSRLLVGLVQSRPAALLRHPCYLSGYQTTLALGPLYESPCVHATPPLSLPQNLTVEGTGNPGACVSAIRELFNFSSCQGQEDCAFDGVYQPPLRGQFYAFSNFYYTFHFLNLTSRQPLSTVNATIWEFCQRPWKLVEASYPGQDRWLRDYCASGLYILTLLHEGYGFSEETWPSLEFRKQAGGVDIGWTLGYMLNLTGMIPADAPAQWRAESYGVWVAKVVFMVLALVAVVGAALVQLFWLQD
Procedure: The applied enzyme inhibition assay has been described (Iqbal J, Vollmayer P, Braun N, Zimmermann H, Müller C E. A capillary electrophoresis method for the characterization of ecto-nucleoside triphosphate diphosphohydrolases (NTPDases) and the analysis of inhibitors by in-capillary enzymatic microreaction. Purinergic Signalling 2005, 1, 349-358).
A. CE instrumentation: All experiments were carried out using a P/ACE MDQ capillary electrophoresis system (Beckman Instruments, Fullerton, Calif., USA) equipped with a UV detection system coupled with a diode-array detector (DAD). Data collection and peak area analysis were performed by the P/ACE MDQ software 32 KARAT obtained from Beckman Coulter. The capillary temperature was kept constant at 25° C. The temperature of the sample storing unit was also adjusted to 25° C. The electrophoretic separations were carried out using an eCAP polyacrylamide-coated fused-silica capillary [(30 cm (20 cm effective length)×50 μm internal diameter (I.D.)×360 μm outside diameter (O.D.), obtained from CS-Chromatographie (Langerwehe, Germany)]. The separation was performed using an applied current of −60 μA and a data acquisition rate of 8 Hz. Analytes were detected using direct UV absorbance at 210 nm. The capillary was conditioned by rinsing with water for 2 min and subsequently with buffer (phosphate 50 mM, pH 6.5) for 1 min. Sample injections were made at the cathodic side of the capillary.
B. NTPDase inhibition assay by capillary electrophoresis: Enzyme inhibition assays were carried out at 37° C. in a final volume of 100 μl. The reaction mixture contained 320 μM of ATP (substrate) in reaction buffer. The reaction buffer contained 140 mM NaCl, 5 mM KCl, 1 mM MgCl2, 2 mM CaCl2, and 10 mM Hepes, pH 7.4.
Different concentrations of inhibitors dissolved in DMSO or water (10 μl) were added and the reaction was initiated by the addition of 10 μl of the appropriately diluted recombinant or native human or rat NTPDase enzyme. […] The mixture (final volume 100 μl) was incubated for 15 min and terminated by heating at 99° C. for 4 min. Aliquots of the reaction mixture (50 μl) were then transferred to mini-CE vials and injected into the CE instrument under the conditions described above. 20 μM of UMP was used as internal standard. Inhibition of NTPDase was tested over a range of 6 to 8 concentrations of test compound spanning 3 orders of magnitude to determine K1 values. Each analysis was repeated two times (in triplicates) in two separate experiments. The Cheng-Prusoff equation was used to calculate the K1 values from the IC50 values, determined by the non-linear curve fitting program PRISM® 3.0 (GraphPad, San Diego, Calif., USA). In table 1K, values of selected compounds as inhibitors of human NTPDases are given.

rP2Y6 = rP2Y6 (Rattus norvegicus, UniProt Q63371); assay: Inhibition of UDP binding at rP2Y6; details: read-out: rP2Y6 % inhibition of UDP binding at 100 μM, n = 3, mean ± SEM
hP2Y12 = hP2Y12 (Homo sapiens, UniProt Q9H244); assay: Inhibition of [3H]PSB-0413 binding at hP2Y12; details: mean ± SEM, read-out: hP2Y12 % Inhibition of [^3H]PSB-0413 Binding at 10 μM, n = 3
Procedure: In table 2 inhibition data of selected examples at human P2Y receptor subtypes were collected. It can be seen that no compound was identified that inhibited P2Y receptors at high concentrations of 100 μM and 10 μM, respectively.

rP2Y6, sequence (Q63371 whole entry): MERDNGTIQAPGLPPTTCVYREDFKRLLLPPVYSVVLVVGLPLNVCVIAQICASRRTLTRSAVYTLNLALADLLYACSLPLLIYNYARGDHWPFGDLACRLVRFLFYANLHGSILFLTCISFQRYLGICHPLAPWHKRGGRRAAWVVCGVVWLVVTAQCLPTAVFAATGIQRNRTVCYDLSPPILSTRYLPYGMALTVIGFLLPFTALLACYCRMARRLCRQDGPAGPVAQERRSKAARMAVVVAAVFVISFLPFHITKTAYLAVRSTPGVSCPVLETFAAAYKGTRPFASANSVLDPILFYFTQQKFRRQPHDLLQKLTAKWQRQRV
hP2Y12, sequence (Q9H244 whole entry): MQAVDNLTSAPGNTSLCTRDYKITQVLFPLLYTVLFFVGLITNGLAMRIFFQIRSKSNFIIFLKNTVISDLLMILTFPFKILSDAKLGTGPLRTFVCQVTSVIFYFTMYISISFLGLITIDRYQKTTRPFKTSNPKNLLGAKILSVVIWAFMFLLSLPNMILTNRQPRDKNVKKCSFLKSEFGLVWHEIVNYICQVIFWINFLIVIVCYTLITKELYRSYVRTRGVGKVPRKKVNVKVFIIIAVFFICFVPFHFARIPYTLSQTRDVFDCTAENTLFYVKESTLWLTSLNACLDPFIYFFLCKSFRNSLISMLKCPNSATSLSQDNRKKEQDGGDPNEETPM

| Structure (SMILES) | Ki (human NTPDase2) | inhibitor of NTPDase (in words) (human NTPDase2; in words, compare Tab. 1) | inhibition at 1000 µM (human NTPDase8) | Ki (human NTPDase8) | inhibition at 100 µM (rP2Y6) | inhibition at 10 µM (hP2Y12) |
| --- | --- | --- | --- | --- | --- | --- |
| CCOP(=O)(Cc1ccc(NC(=O)CNC(=O)[C@H]2O[C@@H](n3ccc(=O)[nH]c3=O)C(O)C2O)cc1)OCC (stereo in doubt) [Compound 2, 4-[2-((2S,3R,4S,5R)-5-(2,4-Dioxo-3,4-dihydropyrimidin-1(2H)-yl)-3,4-dihydroxy-tetrahydrofurane-2-carboxamido)ethaneamido]benzylphosphonic acid diethylester] | 8.2 ± 2.1 µM | excellent inhibitor | 0% | > 100 µM | -10 ± 10% | 2 ± 6% |
| CCOP(=O)(Cc1ccc(NC(=O)CCNC(=O)[C@H]2O[C@@H](n3ccc(=O)[nH]c3=O)C(O)C2O)cc1)OCC (stereo in doubt) [Compound 3, 4-[3-((2S,3R,4S,5R)-5-(2,4-Dioxo-3,4-dihydropyrimidin-1(2H)-yl)-3,4-di-hydroxy-tetrahydrofurane-2-carboxamido)propaneamido]benzylphosphonic acid diethylester] | 173 ± 17 µM |  | 0% | > 100 µM | 7 ± 7% | 9 ± 4% |
